In BindingDB's records for doi:10.1021/cb500820b (University of Massachusetts Medical School, 2015):

Biological target: C-terminal-binding protein 2 (Homo sapiens, UniProt P56545)
Assay: CtBP2 ITC
Conditions: pH 8.5
Description: Five mM MTOB was utilized for competitive displacement assays.

## CSCCC(=O)C(=O)O [4-Methylthio 2-oxobutyric acid (MTOB)]
  Kd: 2960 µM
